Test results published in ChEMBL document CHEMBL3612012, “Identification of orally-bioavailable antagonists of the TRPV4 ion-channel” (Bioorg Med Chem Lett, 2015).
pIC50: −log10 of the molar value. Converted amounts (≈) assume the structure as drawn.

Experiments:
[1] = biological target: Transient receptor potential cation channel subfamily V member 4 (Rattus norvegicus, UniProt Q9ERZ8); assay: Antagonist activity at rat TRPV4 receptor expressed in HEK293 cells assessed as inhibition of EC80 of 4alpha-PDD-stimulated calcium flux after 10 mins; type: cell-based
[2] = biological target: Transient receptor potential cation channel subfamily V member 4 (Homo sapiens, UniProt Q9HBA0); assay: Antagonist activity at human TRPV4 receptor expressed in HEK293 cells assessed as inhibition of EC80 of 4alpha-PDD-stimulated calcium flux after 10 mins; type: cell-based
[3] = Oral bioavailability in Wistar rat at 1.80 mg/kg; type: ADME, organism-based; conditions: in vivo, 1.8 mg/kg
[4] = Plasma protein binding in rat; type: ADME, cell-free; conditions: read-out: PPB (converted)
[5] = Plasma protein binding in human; type: ADME, cell-free; conditions: read-out: PPB (converted)
[6] = AUC (infinity) in Wistar rat at 1.80 mg/kg, po; type: ADME, organism-based; design: dose 1.8 mg/kg, time infinity, route oral; conditions: in vivo, 1.8 mg/kg
[7] = Cmax in Wistar rat at 1.80 mg/kg, po; type: ADME, organism-based; design: dose 1.8 mg/kg, route oral; conditions: in vivo, 1.8 mg/kg
[8] = Solubility of the compound at pH 7.4; type: physicochemical; conditions: buffer
[9] = Clearance in Wistar rat at 1.05 mg/kg, iv; type: ADME, organism-based; conditions: in vivo
[10] = Volume of distribution at steady state in Wistar rat at 1.05 mg/kg, iv; type: ADME, organism-based; conditions: in vivo, read-out: Vdss
[11] = Half life in Wistar rat at 1.05 mg/kg, iv; type: ADME, organism-based; conditions: in vivo
[12] = AUC (infinity) in Wistar rat at 1.05 mg/kg, iv; type: ADME, organism-based; design: dose 1.05 mg/kg, route intravenous, time infinity; conditions: in vivo

Chain of Transient receptor potential cation channel subfamily V member 4 (Rattus norvegicus, UniProt Q9ERZ8) (Q9ERZ8 whole entry): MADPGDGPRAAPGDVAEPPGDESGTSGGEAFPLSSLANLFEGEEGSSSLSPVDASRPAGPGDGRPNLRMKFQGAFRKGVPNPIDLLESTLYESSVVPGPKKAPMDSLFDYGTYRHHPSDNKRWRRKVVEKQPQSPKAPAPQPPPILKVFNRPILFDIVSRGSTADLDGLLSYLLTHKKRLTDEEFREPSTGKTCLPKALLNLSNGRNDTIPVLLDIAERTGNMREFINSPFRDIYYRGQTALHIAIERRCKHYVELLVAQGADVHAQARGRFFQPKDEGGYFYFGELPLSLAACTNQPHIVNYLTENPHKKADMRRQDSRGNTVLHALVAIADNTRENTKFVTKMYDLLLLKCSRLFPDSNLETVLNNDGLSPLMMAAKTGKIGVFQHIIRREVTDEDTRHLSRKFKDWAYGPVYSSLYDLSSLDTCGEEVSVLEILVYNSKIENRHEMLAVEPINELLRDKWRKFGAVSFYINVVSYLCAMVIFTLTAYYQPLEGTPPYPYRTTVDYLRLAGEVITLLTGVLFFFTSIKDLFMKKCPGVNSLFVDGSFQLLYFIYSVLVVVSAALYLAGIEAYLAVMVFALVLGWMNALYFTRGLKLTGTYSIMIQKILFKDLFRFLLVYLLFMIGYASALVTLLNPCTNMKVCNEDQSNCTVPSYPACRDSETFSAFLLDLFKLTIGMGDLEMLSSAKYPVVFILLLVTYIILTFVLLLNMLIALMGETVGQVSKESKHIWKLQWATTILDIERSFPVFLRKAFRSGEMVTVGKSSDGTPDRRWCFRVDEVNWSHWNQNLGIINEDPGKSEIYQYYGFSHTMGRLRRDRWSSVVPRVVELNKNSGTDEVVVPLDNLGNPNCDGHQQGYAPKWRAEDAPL
Chain of Transient receptor potential cation channel subfamily V member 4 (Homo sapiens, UniProt Q9HBA0) (Q9HBA0 whole entry): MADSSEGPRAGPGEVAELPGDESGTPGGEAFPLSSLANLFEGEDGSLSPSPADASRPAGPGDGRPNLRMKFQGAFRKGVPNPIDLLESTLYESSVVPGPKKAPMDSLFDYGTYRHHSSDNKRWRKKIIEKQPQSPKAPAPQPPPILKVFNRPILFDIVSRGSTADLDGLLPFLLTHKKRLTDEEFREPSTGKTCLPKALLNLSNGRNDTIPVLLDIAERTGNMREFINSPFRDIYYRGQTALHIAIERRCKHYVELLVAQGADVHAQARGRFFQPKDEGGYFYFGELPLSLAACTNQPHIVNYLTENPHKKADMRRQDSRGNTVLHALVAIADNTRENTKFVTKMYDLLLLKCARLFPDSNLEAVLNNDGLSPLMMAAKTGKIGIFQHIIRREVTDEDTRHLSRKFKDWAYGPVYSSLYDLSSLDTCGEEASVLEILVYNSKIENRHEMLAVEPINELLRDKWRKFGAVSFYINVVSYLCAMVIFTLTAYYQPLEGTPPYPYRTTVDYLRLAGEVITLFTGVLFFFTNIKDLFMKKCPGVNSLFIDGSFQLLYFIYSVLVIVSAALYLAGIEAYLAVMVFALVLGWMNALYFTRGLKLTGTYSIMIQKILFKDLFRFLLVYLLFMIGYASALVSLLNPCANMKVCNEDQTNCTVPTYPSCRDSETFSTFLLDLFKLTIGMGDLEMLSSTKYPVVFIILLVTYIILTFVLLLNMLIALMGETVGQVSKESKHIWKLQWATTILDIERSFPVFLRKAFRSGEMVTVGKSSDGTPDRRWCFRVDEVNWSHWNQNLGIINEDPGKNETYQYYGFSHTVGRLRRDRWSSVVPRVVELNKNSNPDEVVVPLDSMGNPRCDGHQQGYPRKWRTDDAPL

| SMILES | pIC50 [1] | pIC50 [2] | also measured |
| --- | --- | --- | --- |
| CC(C)N1CCN(S(=O)(=O)c2ccc(NC(=O)c3ccccc3)cc2)CC1 | 5.37 | 5.07 | – |
| CC(C)N1CCN(S(=O)(=O)c2ccc(NC(=O)c3ccc(-c4ncccc4Cl)cc3)cc2)CC1 | 5.41 | 6.03 | – |
| CC(C)N1CCN(S(=O)(=O)c2ccc(NS(=O)(=O)c3ccc(C(F)(F)F)cc3)cc2)CC1 | < 5.00 | < 5.00 | – |
| CC(C)N1CCCN(S(=O)(=O)c2ccc(NC(=O)c3ccc(C(F)(F)F)cc3)cc2)CC1 | – | 5.88 | – |
| CC(C)N1CCN(S(=O)(=O)c2ccc(NC(=O)c3ccc(-c4ccccn4)cc3)cc2)CC1 | 5.19 | 5.31 | – |
| CC(C)N1CCN(C(=O)c2ccc(NC(=O)c3ccc(C(F)(F)F)cc3)cc2)CC1 | < 5.00 | < 5.00 | – |
| CCN(C)C1CCN(S(=O)(=O)c2ccc(NC(=O)c3ccc(C(F)(F)F)cc3)cc2)CC1 | – | 5.89 | – |
| CN(C)C1CCN(S(=O)(=O)c2ccc(NC(=O)c3ccc(C(F)(F)F)cc3)cc2)CC1 | – | 5.68 | – |
| CC(C)N1CCN(S(=O)(=O)c2ccc(NC(=O)c3cccc(C(F)(F)F)c3)cc2)CC1 | 5.71 | 5.66 | – |
| CC(C)N1CCN(S(=O)(=O)c2ccc(NC(=O)c3ccc(C(F)(F)F)cc3N)cc2)CC1 | 5.53 | 6.03 | – |
| CN(C)S(=O)(=O)c1ccc(NC(=O)c2ccc(C(F)(F)F)cc2)cc1 | 5.24 | 5.37 | – |

Further lines, with some results ahead:

| pIC50 [1] | pIC50 [2] | SMILES | also measured |
| --- | --- | --- | --- |
| – | 6.04 | CCN(CC)C1CCN(S(=O)(=O)c2ccc(NC(=O)c3ccc(C(F)(F)F)cc3)cc2)CC1 | – |
| 5.98 | 6.41 | CC(C)N1CCN(S(=O)(=O)c2ccc(NC(=O)c3ccc(C(C)(C)C)cc3)cc2)CC1 | – |
| 6.43 | 6.42 | CC(C)N1CCN(S(=O)(=O)c2ccc(NC(=O)c3ccc(C(F)(F)F)cc3F)cc2)CC1 | – |
| 6.31 | 6.27 | CC(C)N1CCN(S(=O)(=O)c2ccc(NC(=O)c3ccc(C(F)(F)F)cc3C(F)(F)F)cc2)CC1 | – |
| 6.03 | 6.15 | CC(C)N1CCN(S(=O)(=O)c2ccc(NC(=O)c3ccc(C(F)(F)F)cc3)cc2)CC1 | – |
| – | 6.10 | O=C(Nc1ccc(S(=O)(=O)N2CCN(C3CCCC3)CC2)cc1)c1ccc(C(F)(F)F)cc1 | – |
| 6.41 | 6.59 | CC(C)N1CCN(S(=O)(=O)c2ccc(NC(=O)c3ccc(S(F)(F)(F)(F)F)cc3)cc2)CC1 | bioavailability [3]: 22.7%; fraction unbound [4]: 0.0009; fraction unbound [5]: 0.0008; AUC(0-inf) [6]: 303 ng·h/mL; Cmax [7]: 143 ng/mL; solubility [8]: 0.15 µM (≈ 0.077 µg/mL); clearance [9]: 22.5 mL/min/kg; Vd [10]: 2.01 L/kg; half-life [11]: 1.03 h; AUC(0-inf) [12]: 779 ng·h/mL |
